The results in this text go back to PMC6271966, “Synthesis and Biological Activity of Some Bile Acid-Based Camptothecin Analogues” (Molecules, 2014).

Data set [1] concerns human breast cancer cell line (MCF-7). The data set can be described thus: MTT cytotoxicity assay, MCF-7. The data set is classed as cell-based. The protocol:
(§1) The cytotoxicity of these compounds against three cancer cell lines was assayed using a conventional microtitre plate tetrazolium cytotoxicity assay. The human hepatoma cancer cell line (SMMC-7721), the colon cancer cell line (HCT-116), and the human breast cancer cell line (MCF-7) were provided by The Chinese Academy of Sciences cell bank. These cells were plated at a density of 1 × 10^5 cells/mL and incubated in a 96-well late for 24 h (37 °C, 5% CO2). The cells were then exposed to various concentrations of the compounds (0.0032, 0.016, 0.08, 0.4, 2, 10, and 50 µM/mL) continuously for 72 h. After this incubation, MTT solution (20 μL, 5 mg/mL) was added to each well and incubated for a further 4 h before removing the media. Formazan crystals were then dissolved by the addition of DMSO (100 μL per well). After mixing, the absorbance was read at 540 nm on a microplate reader. These assays were performed in three independent experiments. Wells containing no drugs, or CPT, were used as negative and positive controls, respectively. The IC50 values, defined as the concentration of compounds that produced a 50% decrease in surviving cells, were calculated using the Logit-method.

For data set [2] the following is noted: in this project. The protocol:
Preliminary anti-tumour activity studies of E2, G4, and H2 were evaluated in vivo in a mouse liver adenocarcinoma model (H22) and compared with CPT.

Data set [3] deals with human hepatoma cell line (SMMC-7721). The data set can be described thus: MTT cytotoxicity assay, SMMC-7721. The data set is classed as cell-based. The protocol:
as §1

For the next data set, the system named is H22 mouse liver tumours. Description: In vivo anti-tumour activity, H22 mouse liver tumour model. The conditions noted are these: H22 KM mice, i.p. every two days. The protocol: Anti-tumour activity screens of CPT-bile acid analogues were conducted in KM mice with H22 mouse liver tumours. Briefly, female mice weighing 18–22 g were subcutaneously inoculated at the right flank with a tumour cell suspension (1 × 10^6 cells) in 0.2 mL of phosphate-buffered saline. The mice were divided into subgroups 24 h after inoculation. These groups (n = 4) were treated with either vehicle (control), CPT, or the CPT-bile acid analogues. Mice received i.p. treatments once every two days. When the tumour weight of the control group reached 1.0–1.5 g, the mice were killed and the TIR (%) calculated.

A short description of data set [4]: Lactone stability in rat blood serum (HPLC). The data set is classed as in vitro ADME. The protocol:
Compounds E2, F2, G2, and H2 were dissolved in DMSO (100 μL, 4 mM/L) and incubated in rat blood serum (4 mL) at 37 °C. Aliquots were taken at different time points (0, 2, 4, 6, 8, 10, 12, and 24 h) and examined by HPLC, using CPT as the reference.

The subject of the next data set is SMMC-7721 cells. The data set can be described thus: Fluorescence microscopy of compound entry into SMMC-7721 cells. The data set is classed as cell-based, human. The conditions noted are these: 10 or 20 µM, up to 4 h at 37 °C, ultraviolet light. The protocol:
(§2) Compound E2 (final concentrations of 10 µM/mL and […]) and CPT (final concentrations of 10 µM/mL and 20 µM/mL) were directly added to the cell culture medium and incubated for 1 h, 2 h or 4 h at 37 °C. The cells were then gently washed three times with physiological saline. Cellular fluorescence was imaged using a fluorescence microscope (Zeiss inverted Microscope Axiovert 200 equipped with a NIKON DS-FiL (Sendai, Japan). The images were taken using ultraviolet light.

Data set [5] has as its system human colon cancer cell line (HCT-116). Description: MTT cytotoxicity assay, HCT-116. The data set is classed as cell-based. The protocol:
as §1

Another data set concerns MCF-7 cells. The data set can be described thus: Fluorescence microscopy of compound entry into MCF-7 cells. To be noted: data not shown. The data set is classed as cell-based, human. The protocol: as §2
Data set [6] in a line: Body weight and surviving mice in the H22 in vivo study. Further details: species or system mouse. The conditions noted are these: for Mice Number End of Study: 4 mice at start. The protocol:
Anti-tumour activity screens of CPT-bile acid analogues were conducted in KM mice with H22 mouse liver tumours. […] These groups (n = 4) were treated with either vehicle (control), CPT, or the CPT-bile acid analogues. Mice received i.p. treatments once every two days.

[7] abbreviates: MCF7, 72 h, read-out: In Vitro Cytotoxicity (IC50, µM) MCF-7.
[8] abbreviates: SMMC-7721, 72 h, read-out: In Vitro Cytotoxicity (IC50, µM) SMMC7721.
The mark [9] stands for this setting: HCT-116, 72 h, read-out: In Vitro Cytotoxicity (IC50, µM) HCT-116.

Like-named read-outs stand apart in the source and are kept apart here.

Take `CC[C@@]1(O)C(=O)OCc2c1cc1n(c2=O)Cc2cc3ccccc3nc2-1` [CPT, Camptothecin]: the IC50 (in general, the point on the concentration scale where inhibition reaches its midpoint) in data set [1] (MCF7, MTT, 72 h exposure, MCF-7, read-out: In Vitro Cytotoxicity (IC50, µM) MCF-7) came to 0.57 µM; in [3] (MTT, 72 h exposure, SMMC-7721, read-out: In Vitro Cytotoxicity (IC50, µM) SMMC7721), 0.56 µM; in [5] (MTT, 72 h exposure, HCT-116, read-out: In Vitro Cytotoxicity (IC50, µM) HCT-116), 0.52 µM. Moreover, the “maximum dose which the mouse can tolerate” value in data set [2] came out at 27.45 µmol/kg. The “TIR (%)” value in the data set with H22 mouse liver tumours (dose 27.45 × 3 µmol/kg) came out at 67.26%. The half-life (as a rule, how long it takes for the measured level to halve) at 97.6 µM in data set [4] (rat blood serum, 37 °C, HPLC, up to 24 h, read-out: Half-Life (converted)) is 2.3 h. Further, the entries for the “Cellular fluorescence (accumulation in cells)” value (“Cellular fluorescence” below) with SMMC-7721 cells and with MCF-7 cells were “no distinct fluorescence” and “no fluorescent signal”, respectively. Further, the “Mice Number End of Study” value in data set [6] (dose 27.45 × 3 µmol/kg i.p.) is 3. In data set [6] (dose 27.45 × 3 µmol/kg i.p., start of study 21.4 g), the “Body Weight (g) End of Study” value is 18.6 g.

On to `CC[C@@]1(OC(=O)CNC(=O)CCC(C)C2CCC3C4CCC5C[C@H](O)CC[C@]5(C)C4C[C@H](O)[C@]23C)C(=O)OCc2c1cc1n(c2=O)Cc2cc3ccccc3nc2-1` (stereo partly drawn) [Compound E2, Camptothecin-20 (S)-O-glycine Ester-[N-(3′α,12′α-dihydroxy-24′-carbonyl-5′β-cholane)]], for which the melting point (usually the temperature, or range, at which the solid turns liquid) was 203 to 204 °C. Further, the IC50 in [1] (setting [7]) amounted to 150 µM. For the same compound, the IC50 in data set [3] (setting [8]) is 0.36 µM. Also, the “TIR (%)” value in the data set on H22 mouse liver tumours (dose 19.23 × 3 µmol/kg) is listed as 4.09%. The “TIR (%)” value in the data set with H22 mouse liver tumours (dose 38.45 × 3 µmol/kg) was determined as 16.10%. Besides, the “TIR (%)” value in the data set with H22 mouse liver tumours (dose 57.69 × 3 µmol/kg) turned out to be 40.13%. Further, the half-life at 97.6 µM in [4] (rat, serum) was > 24 h. Further, the “Cellular fluorescence” value with SMMC-7721 cells is “accumulated in the SMMC-7721 cells”. For the same compound, the IC50 in data set [5] (setting [9]) came out at 15.8 µM. In the data set on MCF-7 cells, the “Cellular fluorescence” value is reported as “no fluorescent signal”. Moreover, the “Mice Number End of Study” value in data set [6] (dose 19.23 × 3 µmol/kg i.p.) was determined as 4. Besides, in [6] (dose 19.23 × 3 µmol/kg i.p., start of study 19.9 g), the “Body Weight (g) End of Study” value is 21.9 g. Further, the “Mice Number End of Study” value in data set [6] (dose 38.45 × 3 µmol/kg i.p.) amounted to 4. Besides, the “Body Weight (g) End of Study” value in data set [6] (dose 38.45 × 3 µmol/kg i.p., start of study 20.5 g) is recorded as 21.5 g. For the same compound, the “Mice Number End of Study” value in data set [6] (dose 57.69 × 3 µmol/kg i.p.) came to 4. Also, the “Body Weight (g) End of Study” value in [6] (dose 57.69 × 3 µmol/kg i.p., start of study 20.5 g) turned out to be 20.6 g.

Consider `CC[C@@]1(O)C(=O)OCc2c1cc1n(c2=O)Cc2cc3cc(OCCCOC(=O)CCC(C)C4CCC5C6CCC7C[C@H](O)CCC7C6C[C@H](O)C45)ccc3nc2-1` (stereo partly drawn) [Compound H2, 10-O-(3-O-(3′α,12′α-Dihydroxy-24′-carbonyl-5′β-cholan)-propyl)-20(S)-camptothecin], for which the IC50 in data set [1] (setting [7]) was 2.5 µM; in data set [3] (setting [8]) it was 2.74 µM; in data set [5] (setting [9]), 0.8 µM. In addition, the results for the “TIR (%)” value in the data set with H22 mouse liver tumours (dose 18.82 × 3 µmol/kg), in the data set with H22 mouse liver tumours (dose 37.64 × 3 µmol/kg) and in the data set on H22 mouse liver tumours (dose 56.46 × 3 µmol/kg) were 13.27%, 57.99% and 61.19%, respectively. In addition, the half-life at 97.6 µM in data set [4] (rat, serum) is > 24 h. Besides, the “Mice Number End of Study” value turned out to be 3 in data set [6] (dose 18.82 × 3 µmol/kg i.p.), 4 in data set [6] (dose 37.64 × 3 µmol/kg i.p.) and 3 in [6] (dose 56.46 × 3 µmol/kg i.p.). The “Body Weight (g) End of Study” value was 21.1 g in [6] (dose 18.82 × 3 µmol/kg i.p., start of study 22.1 g); 18.2 g in data set [6] (dose 37.64 × 3 µmol/kg i.p., start of study 21.9 g); 20.0 g in data set [6] (dose 56.46 × 3 µmol/kg i.p., start of study 21.6 g).
